# Test results taken from ChEMBL document CHEMBL4418912, “Methods of identifying antagonists of the hTAS2R46 bitter taste receptor” (2014).
# Calls of active or inactive are those of the source. No cut-off for these calls is given here.
# How the values were obtained:
# Assay type in all cases: functional, cell-based
# [1] = target: T1, Taste receptor type 2 member 5 (Homo sapiens) (UniProt Q9NYW4); experiment: Antagonist activity at recombinant human N-terminal rat ST3 receptor-fused TAS2R5 expressed in HEK293T cells co-expressing Galpha16gust44 assessed as inhibition of denatonium saccharide-induced intracellular calcium level at 100 uM by FLIPR assay
# T1 sequence (whole entry): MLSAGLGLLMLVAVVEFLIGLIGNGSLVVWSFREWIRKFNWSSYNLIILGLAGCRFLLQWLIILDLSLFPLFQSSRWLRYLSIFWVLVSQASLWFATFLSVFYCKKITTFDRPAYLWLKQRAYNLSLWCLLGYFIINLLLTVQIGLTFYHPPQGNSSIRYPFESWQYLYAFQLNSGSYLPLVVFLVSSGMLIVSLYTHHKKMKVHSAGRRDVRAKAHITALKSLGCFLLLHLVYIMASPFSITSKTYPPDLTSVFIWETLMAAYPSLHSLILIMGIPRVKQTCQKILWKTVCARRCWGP
# [2] = target: T2, Taste receptor type 2 member 31 (Homo sapiens) (UniProt P59538); experiment: Agonist activity at recombinant human N-terminal rat ST3 receptor-fused TAS2R44 expressed in HEK293T cells co-expressing Galpha16gust44 assessed as increase in intracellular calcium level at 100 uM by FLIPR assay
# T2 sequence (whole entry): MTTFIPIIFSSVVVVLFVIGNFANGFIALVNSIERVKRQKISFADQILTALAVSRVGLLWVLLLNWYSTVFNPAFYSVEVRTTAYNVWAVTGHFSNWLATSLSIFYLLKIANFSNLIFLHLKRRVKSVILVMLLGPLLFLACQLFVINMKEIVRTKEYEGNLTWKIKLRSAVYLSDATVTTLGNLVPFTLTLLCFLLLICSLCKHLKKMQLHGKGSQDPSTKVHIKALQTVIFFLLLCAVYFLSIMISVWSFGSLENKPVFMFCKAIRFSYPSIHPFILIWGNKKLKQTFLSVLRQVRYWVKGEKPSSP
# [3] = target: T3, Taste receptor type 2 member 3 (Homo sapiens) (UniProt Q9NYW6); experiment: Agonist activity at recombinant human N-terminal rat ST3 receptor-fused TAS2R3 expressed in HEK293T cells co-expressing Galpha16gust44 assessed as increase in intracellular calcium level at 100 uM by FLIPR assay
# T3 sequence (whole entry): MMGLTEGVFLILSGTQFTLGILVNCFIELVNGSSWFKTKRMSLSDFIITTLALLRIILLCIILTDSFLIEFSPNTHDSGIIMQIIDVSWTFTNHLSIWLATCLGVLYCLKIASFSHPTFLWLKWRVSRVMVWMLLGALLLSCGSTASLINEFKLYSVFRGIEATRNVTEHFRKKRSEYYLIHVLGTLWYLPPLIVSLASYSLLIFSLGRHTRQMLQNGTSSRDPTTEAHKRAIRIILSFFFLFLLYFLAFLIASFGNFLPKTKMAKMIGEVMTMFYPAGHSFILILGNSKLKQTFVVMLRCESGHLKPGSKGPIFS
# [4] = target: T4, Taste receptor type 2 member 39 (Homo sapiens) (UniProt P59534); experiment: Agonist activity at recombinant human N-terminal rat ST3 receptor-fused TAS2R39 expressed in HEK293T cells co-expressing Galpha16gust44 assessed as increase in intracellular calcium level at 100 uM by FLIPR assay
# T4 sequence (whole entry): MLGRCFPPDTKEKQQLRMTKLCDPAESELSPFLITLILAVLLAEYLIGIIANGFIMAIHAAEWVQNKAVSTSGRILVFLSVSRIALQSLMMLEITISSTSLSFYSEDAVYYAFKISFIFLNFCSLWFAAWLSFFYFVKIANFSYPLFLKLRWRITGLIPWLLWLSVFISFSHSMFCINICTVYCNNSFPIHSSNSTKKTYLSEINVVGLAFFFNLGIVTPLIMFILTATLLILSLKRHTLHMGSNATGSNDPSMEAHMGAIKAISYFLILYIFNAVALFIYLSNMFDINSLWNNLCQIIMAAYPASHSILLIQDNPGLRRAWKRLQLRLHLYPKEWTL
# [5] = target: Taste receptor type 2 member 42 (Homo sapiens) (UniProt Q7RTR8); experiment: Agonist activity at recombinant human N-terminal rat ST3 receptor-fused TAS2R42 expressed in HEK293T cells co-expressing Galpha16gust44 assessed as increase in intracellular calcium level at 100 uM by FLIPR assay
# [6] = target: Taste receptor type 2 member 19 (Homo sapiens) (UniProt P59542); experiment: Agonist activity at recombinant human N-terminal rat ST3 receptor-fused TAS2R48 expressed in HEK293T cells co-expressing Galpha16gust44 assessed as increase in intracellular calcium level at 100 uM by FLIPR assay
# [7] = target: T5, Taste receptor type 2 member 20 (Homo sapiens) (UniProt P59543); experiment: Agonist activity at recombinant human N-terminal rat ST3 receptor-fused TAS2R49 expressed in HEK293T cells co-expressing Galpha16gust44 assessed as increase in intracellular calcium level at 100 uM by FLIPR assay
# T5 sequence (whole entry): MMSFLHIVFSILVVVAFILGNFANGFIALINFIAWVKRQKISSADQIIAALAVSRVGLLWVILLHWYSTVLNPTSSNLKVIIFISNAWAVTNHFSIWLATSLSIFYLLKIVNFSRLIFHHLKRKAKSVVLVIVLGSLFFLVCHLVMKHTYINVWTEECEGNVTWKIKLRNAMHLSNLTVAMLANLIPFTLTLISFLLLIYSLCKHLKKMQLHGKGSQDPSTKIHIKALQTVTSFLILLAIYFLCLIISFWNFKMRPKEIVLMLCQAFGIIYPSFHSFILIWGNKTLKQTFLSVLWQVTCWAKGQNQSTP
# [8] = target: T6, Taste receptor type 2 member 10 (Homo sapiens) (UniProt Q9NYW0); experiment: Competitive-antagonist activity at recombinant human N-terminal rat ST3 receptor-fused TAS2R10 expressed in HEK293T cells co-expressing Galpha16gust44 assessed as inhibition of strychnine-induced increase in intracellular calcium level by measuring maximum signal amplitude at 30 uM by FLIPR assay (reference value: 0.42 +/- 0.09 a.u.)
# T6 sequence (whole entry): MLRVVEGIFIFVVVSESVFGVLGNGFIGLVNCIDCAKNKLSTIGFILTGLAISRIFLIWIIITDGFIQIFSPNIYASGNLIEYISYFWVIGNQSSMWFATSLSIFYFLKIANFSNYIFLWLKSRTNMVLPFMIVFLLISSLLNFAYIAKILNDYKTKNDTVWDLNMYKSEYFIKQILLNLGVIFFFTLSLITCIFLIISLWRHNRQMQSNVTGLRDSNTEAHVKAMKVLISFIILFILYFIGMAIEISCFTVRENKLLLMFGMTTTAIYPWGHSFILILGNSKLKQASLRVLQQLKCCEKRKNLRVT
# Taste receptor type 2 member 42 (Homo sapiens), sequence (Q7RTR8 whole entry, the tested form may be a part): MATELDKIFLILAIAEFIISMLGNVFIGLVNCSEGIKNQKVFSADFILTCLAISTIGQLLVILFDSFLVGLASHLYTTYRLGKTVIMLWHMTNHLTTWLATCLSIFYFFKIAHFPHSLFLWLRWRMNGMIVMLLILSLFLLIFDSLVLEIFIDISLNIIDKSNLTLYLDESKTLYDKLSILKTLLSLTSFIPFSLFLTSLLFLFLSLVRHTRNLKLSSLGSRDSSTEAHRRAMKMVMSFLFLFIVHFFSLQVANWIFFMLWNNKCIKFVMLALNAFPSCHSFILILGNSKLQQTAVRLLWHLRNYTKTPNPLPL
# Taste receptor type 2 member 19 (Homo sapiens), sequence (P59542 whole entry, the tested form may be a part): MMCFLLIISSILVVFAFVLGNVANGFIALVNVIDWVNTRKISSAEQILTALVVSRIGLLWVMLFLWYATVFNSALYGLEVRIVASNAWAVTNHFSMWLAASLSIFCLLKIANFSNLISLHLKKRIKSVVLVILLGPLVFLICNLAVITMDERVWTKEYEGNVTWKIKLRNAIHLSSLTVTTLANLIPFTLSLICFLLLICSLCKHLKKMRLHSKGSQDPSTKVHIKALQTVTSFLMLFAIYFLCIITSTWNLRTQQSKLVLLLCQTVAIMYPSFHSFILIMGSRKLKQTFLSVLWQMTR
Structure (SMILES),inhibition [1],Activity [2],Activity [3],Activity [4],Activity [5],Activity [6],Activity [7],Activity [8]
C/C1=C\C[C@H](O)[C@@H](C)C[C@H]2OC(=O)[C@@H](C)[C@@H]2CC1,inactive,,,,,,,
C/C1=C\C[C@H](O)/C(C)=C/[C@H]2OC(=O)[C@@H](C)[C@@H]2CC1,,Active,inactive,inactive,inactive,inactive,inactive,0.41 a.u.
